From patent US20060013866A1, “Transdermal drug delivery formulations with optimal amounts of vasodilators therein” (priority 2004, published 2006)

How the values were obtained:
Format in all cases: in vivo
[1] = Topical ibuprofen vehicle with tocopherol nicotinate applied to rabbits, ibuprofen in plasma over three hours
Experimental: Test formulations containing 15% ibuprofen-sodium salt, 5% oleic acid, 10% menthol, 5% propylene glycol, 10% dimethylacetamide, 1% decylmethylsulfoxide, 1% u-care, varying amounts of tocopherol nicotinate in the range of 0-1%, and 52-53% deionized water were each blended in a beaker with a mechanical mixer and heated to 40° C. for 30 minutes until clear, then cooled to room temperature.
150 mg of sodium salt-ibuprofen was formulated with a 1-gram dose of the above lipid-based vehicle formulations containing the increasing amounts of the vasodilator tocopherol nicotinate. The Ibuprofen vehicle was topically applied to rabbits and blood samples were taken over a three-hour period. Plasma was prepared and analyzed for the amount of ibuprofen present in the blood. The data represents the integrated value of ibuprofen concentration in the blood for the three hour time period for each concentration of tocopherol nicotinate.

[2] = Topical ibuprofen vehicle with papaverine applied to rabbits, ibuprofen in plasma over three hours; settings: 150 mg sodium salt-ibuprofen
Experimental: Test formulations containing 15% ibuprofen-sodium salt, 5% oleic acid, 10% menthol, 5% propylene glycol, 10% dimethylacetamide, 1% decylmethylsulfoxide, 1% u-care, varying amounts of papaverine ranging from 0-1%, and 52-53% deionized water were each blended in a beaker with a mechanical mixer and heated to 40° C. for 30 minutes until clear, then cooled to room temperature.
150 mg of sodium salt-ibuprofen was formulated with the above lipid-based vehicle formulatiosn containing increasing amounts of the vasodilator papaverine. The Ibuprofen vehicle was topically applied to rabbits and blood samples were taken over a three-hour period. Plasma was prepared and analyzed for the amount of ibuprofen present in the blood. The data represents the integrated value of ibuprofen concentration in the blood for the three hour time period for each concentration of papaverine.

[3] = Topical ibuprofen vehicle with tolazoline applied to rabbits, ibuprofen in plasma over three hours; settings: 150 mg sodium salt-ibuprofen
Experimental: Test formulations containing 15% ibuprofen- sodium salt, 5% oleic acid, 10% menthol, 5% propylene glycol, 10% dimethylacetamide, 1% decylmethylsulfoxide, 1% u-care, varying amounts of tolazoline ranging from 0-0.1%, and 52.9-53% deionized water were each blended in a beaker with a mechanical mixer and heated to 40° C. for 30 minutes until clear, then cooled to room temperature.
150 mg of sodium salt-ibuprofen was formulated with the above lipid-based vehicle formulatiosn containing increasing amounts of the vasodilator tolazoline. The Ibuprofen vehicle was topically applied to rabbits and blood samples were taken over a three-hour period. Plasma was prepared and analyzed for the amount of ibuprofen present in the blood. The data represents the integrated value of ibuprofen concentration in the blood for the three hour time period for each concentration of tolazoline.

[4] = Maximal blood flow stimulated by vasodilator, laser Doppler perfusion imager
From the text: The present invention also relates to the methods needed to obtain the optimal transdermal delivery of drugs as a function of enhanced delivery resulting from the presence of vasodilator chemicals relates to the topical application of therapeutic or diagnostic agents for the systemic or localized distribution of therapeutic or diagnostic agents for the purpose of treating or detecting diseases and medical conditions. The topically applied agents may be administered at different locations on the human body to achieve access to the circulatory system. The inclusion of chemical vasodilator facilitates the transportation of the therapeutic and diagnostic agents. Chemical vasodilators act through a mechanism-specific basis resulting in a stimulation or inhibition of the uptake of the therapeutic or diagnostic agents. […] Transdermal delivery of the drug molecule as a function of the vasodilator is evaluated in a living suitable animal model or human test subject, topically applying the test formulations, which contain varying amounts of vasodilator. […] Effective transdermal drug delivery is measured by determining the amount of drug present in the blood plasma as a function of time following the single application. […]
Maximal blood flow stimulated by the vasodilator tolazoline was measured using a laser Doppler perfusion imager.

With `CC(C)Cc1ccc(C(C)C(=O)O)cc1` (centres unmarked) [Ibuprofen, ibuprofen] the “integrated value of ibuprofen concentration in the blood (0-3 hr)” value (“integrated value” below) ([1]; 150 mg sodium salt-ibuprofen in 1-gram dose, Control (no tocopherol nicotinate)) was 1030 ng·h/mL, the “integrated value” value ([1]; 150 mg sodium salt-ibuprofen, tocopherol nicotinate 0.00010%) was 3980 ng·h/mL and the “integrated value” value ([1]; 150 mg sodium salt-ibuprofen, tocopherol nicotinate 0.00025%) was 9480 ng·h/mL. For the same compound, the “integrated value” value ([1]; 150 mg sodium salt-ibuprofen, tocopherol nicotinate 0.00050%) was 3120 ng·h/mL, the “integrated value” value ([1]; 150 mg sodium salt-ibuprofen, tocopherol nicotinate 0.0010%) was 5080 ng·h/mL and the “integrated value” value ([1]; 150 mg sodium salt-ibuprofen, tocopherol nicotinate 0.0100%) was 5840 ng·h/mL. For the same compound, the “integrated value” value ([1]; 150 mg sodium salt-ibuprofen, tocopherol nicotinate 0.100%) was 4300 ng·h/mL, the “integrated value” value ([1]; 150 mg sodium salt-ibuprofen, tocopherol nicotinate 1.000%) was 4400 ng·h/mL and the “integrated value” value ([2]; Control (no papaverine)) was 1030 ng·h/mL. The “integrated value” value ([2]; papaverine 0.00010%) was 5120 ng·h/mL, the “integrated value” value ([2]; papaverine 0.00025%) was 4470 ng·h/mL and the “integrated value” value ([2]; papaverine 0.00050%) was 8370 ng·h/mL. For the same compound, the “integrated value” value ([2]; papaverine 0.0010%) was 7620 ng·h/mL, the “integrated value” value ([2]; papaverine 0.0100%) was 5720 ng·h/mL and the “integrated value” value ([2]; papaverine 0.100%) was 4230 ng·h/mL. The “integrated value” value ([2]; papaverine 1.000%) was 6160 ng·h/mL, the “integrated value” value ([3]; Control (no tolazoline)) was 1030 ng·h/mL and the “integrated value” value ([3]; tolazoline 0.0010%) was 3900 ng·h/mL. The “integrated value” value ([3]; tolazoline 0.0050%) was 5240 ng·h/mL, the “integrated value” value ([3]; tolazoline 0.0100%) was 5660 ng·h/mL and the “integrated value” value ([3]; tolazoline 0.0500%) was 3530 ng·h/mL. For the same compound, the “integrated value” value ([3]; tolazoline 0.100%) was 4530 ng·h/mL.
For `c1ccc(CC2=NCCN2)cc1` [tolazoline], the “concentration of tolazoline at which the maximum blood flow was achieved” value [4] was 0.5%.
